This is an account of results in US12612424B2, “HPK1 inhibitors and uses thereof” (Regor Pharmaceuticals, Inc., priority 2019, dated 2026).

Usually IC50 stands for the concentration at which inhibition is half-maximal.

Where only a bound is given, the exact number is not on record here.

One assay concerns the target T1, JAK3 (Homo sapiens, UniProt P52333).
T1 construct: purchased Thermo fisher PV3855
Briefly: JAK3 biochemical assay (ADP-GLO Kinase Assay). To be noted: for IC50: B*: testing performed in a first testing facility, read-out: JAK3 IC50 (nM) Relative, B*; for JAKs/HPK1 IC50 Ratio, B*: ratio of JAK3 IC50 to HPK1 IC50, first testing facility. The procedure, abridged: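 Human JAK3 (0.78 ng) with 0.2 μg/μL Poly(E4Y1) and 4 μM ATP in 40 mM Tris pH 7.5, 20 mM MgCl2, 0.1 mg/ml BSA, 50 μM DTT, 1% DMSO; 60 min at 25 °C. ADP formed read by ADP-Glo luminescence. 10-dose 3-fold series from 10 μM; IC50 by three-parameter logistic fit.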
On the technique in general: In ADP-Glo the light output rises with the ADP produced.

The target in another assay is HPK1 (Homo sapiens, UniProt Q92918). Briefly: HPK1 biochemical assay (ADP-GLO Kinase Assay). Conditions: B*: testing performed in a first testing facility; read-out: HPK1 IC50 (nM) Relative, B*. The procedure, abridged:
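HPK1 (0.6 ng/μL final) activity was followed with MBP substrate and 10 μM ATP in Tris pH 7.5/MgCl2/BSA/DTT buffer, measured by ADP-Glo luminescence. Compounds were tested as 3-fold dilutions from 10 μM. IC50 came from a three-parameter logistic fit, with inhibition normalised to high/low controls.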

Sequence of HPK1 (Q92918 whole entry): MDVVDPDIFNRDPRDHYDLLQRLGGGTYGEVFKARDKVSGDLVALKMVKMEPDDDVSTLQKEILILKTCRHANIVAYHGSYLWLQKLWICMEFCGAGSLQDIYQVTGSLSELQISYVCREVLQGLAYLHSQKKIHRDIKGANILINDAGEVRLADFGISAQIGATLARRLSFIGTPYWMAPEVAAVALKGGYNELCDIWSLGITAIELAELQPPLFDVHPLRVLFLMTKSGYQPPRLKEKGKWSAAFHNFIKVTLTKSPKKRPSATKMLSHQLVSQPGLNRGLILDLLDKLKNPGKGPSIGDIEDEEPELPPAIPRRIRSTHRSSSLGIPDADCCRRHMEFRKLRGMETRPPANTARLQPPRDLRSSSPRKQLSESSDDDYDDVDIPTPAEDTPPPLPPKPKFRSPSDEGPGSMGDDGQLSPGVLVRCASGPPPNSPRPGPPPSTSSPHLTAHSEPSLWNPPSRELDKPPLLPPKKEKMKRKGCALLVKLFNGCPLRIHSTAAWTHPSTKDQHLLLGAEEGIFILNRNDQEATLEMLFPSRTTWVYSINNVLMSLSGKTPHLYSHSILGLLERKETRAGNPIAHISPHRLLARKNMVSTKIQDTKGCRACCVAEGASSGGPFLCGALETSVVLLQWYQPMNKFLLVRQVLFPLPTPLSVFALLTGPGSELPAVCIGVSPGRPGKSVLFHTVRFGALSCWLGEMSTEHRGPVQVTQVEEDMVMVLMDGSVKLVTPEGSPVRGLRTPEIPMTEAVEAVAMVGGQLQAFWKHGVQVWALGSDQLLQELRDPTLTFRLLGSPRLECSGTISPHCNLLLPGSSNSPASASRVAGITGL
T1 sequence (P52333 781-1124 limits assumed): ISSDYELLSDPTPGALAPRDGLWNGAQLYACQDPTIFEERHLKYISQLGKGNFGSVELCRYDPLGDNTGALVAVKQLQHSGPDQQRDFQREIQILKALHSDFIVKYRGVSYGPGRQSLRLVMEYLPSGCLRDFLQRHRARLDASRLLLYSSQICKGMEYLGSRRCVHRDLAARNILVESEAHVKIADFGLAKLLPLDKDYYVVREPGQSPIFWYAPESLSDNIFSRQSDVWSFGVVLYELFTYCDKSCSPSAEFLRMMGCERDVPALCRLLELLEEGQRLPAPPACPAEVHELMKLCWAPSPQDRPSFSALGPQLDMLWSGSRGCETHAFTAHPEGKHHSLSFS

With `COc1cc2c(cc1Nc1ncc(Cl)c(N3CC(C)(CC(=O)O)c4ccccc43)n1)CN(C(C)C)CC2` (stereo not drawn) [Example 158, 2-(1-(5-Chloro-2-((2-isopropyl-6-methoxy-1,2,3,4-tetrahydroisoquinolin-7-yl)amino)pyrimidin-4-yl)-3-methylindolin-3-yl)acetic acid], at JAK3, the IC50 lay in the range of 100 to 500 nM and the “JAKs/HPK1 IC50 Ratio, B*” value is 192. Also, the IC50 on HPK1 was at most 100 nM.

For the compound `COc1cc2c(cc1Nc1ncc(Cl)c(N3CC(C)(CC(=O)O)c4ccccc43)n1)CN(C)C2` (stereo not drawn) [Example 159, 2-(1-(5-Chloro-2-((6-methoxy-2-methylisoindolin-5-yl)amino)pyrimidin-4-yl)-3-methylindolin-3-yl)acetic acid], at JAK3, the IC50 is at most 100 nM and the “JAKs/HPK1 IC50 Ratio, B*” value came out at 71. The IC50 at HPK1 is at most 100 nM.

Take `COc1cc2c(cc1Nc1ncc(Cl)c(N3CC(C)(CC(=O)O)c4ccccc43)n1)CNCC2` (stereo not drawn) [Example 160, 2-(1-(5-Chloro-2-((6-methoxy-1,2,3,4-tetrahydroisoquinolin-7-yl)amino)pyrimidin-4-yl)-3-methylindolin-3-yl)acetic acid methanesulfonic acid]: on JAK3, the IC50 was at most 100 nM and the “JAKs/HPK1 IC50 Ratio, B*” value turned out to be 97. At HPK1, the IC50 is at most 100 nM.

As for `COc1cc2c(cc1Nc1ncc(Cl)c(-c3cn(CC(=O)O)c4ccccc34)n1)CN(C)CC2` [Example 161], at JAK3, the IC50 was 500 to 1000 nM and the “JAKs/HPK1 IC50 Ratio, B*” value was 510. Also, the IC50 at HPK1 is at most 100 nM.

For the compound `COc1cc2c(cc1Nc1ncc(Cl)c(-c3nn(CC(=O)O)c4ccccc34)n1)CN(C)CC2` [Example 162, 2-(3-(5-Chloro-2-((6-methoxy-2-methyl-1,2,3,4-tetrahydroisoquinolin-7-yl)amino)pyrimidin-4-yl)-1H-indazol-1-yl)acetic acid], on JAK3, the IC50 is above 1000 nM and the “JAKs/HPK1 IC50 Ratio, B*” value came out at 415. Further, the IC50 at HPK1 was at most 100 nM.

Turning to `COc1cc2c(cc1Nc1nccc(N3CC(C(=O)O)c4ccccc43)n1)CN(C)CC2` (stereo not drawn) [Example 163, 1-(2-((6-Methoxy-2-methyl-1,2,3,4-tetrahydroisoquinolin-7-yl)amino)pyrimidin-4-yl)indoline-3-carboxylic acid], on JAK3, the IC50 was above 1000 nM and the “JAKs/HPK1 IC50 Ratio, B*” value is 456. Moreover, on HPK1, the IC50 is at most 100 nM.

As for `COc1cc2c(cc1Nc1ncc3cc(C#N)n(-c4ccccc4)c3n1)CN(C)CC2` [Example 164, 2-((6-Methoxy-2-methyl-1,2,3,4-tetrahydroisoquinolin-7-yl)amino)-7-phenyl-7H-pyrrolo[2,3-d]pyrimidine-6-carbonitrile], on JAK3, the IC50 lay within 500 to 1000 nM and the “JAKs/HPK1 IC50 Ratio, B*” value is listed as 306. At HPK1, the IC50 is at most 100 nM.

As for `COc1cc2c(cc1Nc1ncc(Cl)c(N3CC(C(=O)O)C4(CCCCC4)C3)n1)CN(C)CC2` (stereo not drawn) [Example 167, 2-(5-Chloro-2-((6-methoxy-2-methyl-1,2,3,4-tetrahydroisoquinolin-7-yl)amino)pyrimidin-4-yl)-2-azaspiro[4.5]decane-4-carboxylic acid], at JAK3, the IC50 was above 1000 nM and the “JAKs/HPK1 IC50 Ratio, B*” value is listed as 995. For the same compound, the IC50 on HPK1 is at most 100 nM.

In the case of `COc1cc2c(cc1Nc1ncc(Cl)c(N3CC(C(=O)O)C4(CCCC4)C3)n1)CN(C)CC2` (stereo not drawn) [Example 169, 2-(5-Chloro-2-((6-methoxy-2-methyl-1,2,3,4-tetrahydroisoquinolin-7-yl)amino)pyrimidin-4-yl)-2-azaspiro[4.4]nonane-4-carboxylic acid], at JAK3, the IC50 was above 1000 nM and the “JAKs/HPK1 IC50 Ratio, B*” value came out at 1482. Also, on HPK1, the IC50 was at most 100 nM.
